Experimental data from ChEMBL document CHEMBL5053557, “Discovery of Novel Dual-Target Inhibitor of Bromodomain-Containing Protein 4/Casein Kinase 2 Inducing Apoptosis and Autophagy-Associated Cell Death for Triple-Negative Breast Cancer Therapy” (J Med Chem, 2021).

Legend:
MDA-MB-468 = test: Antiproliferative activity against human MDA-MB-468 cells incubated for 24 hrs by MTT assay; type: functional, cell-based; conditions: MDA-MB-468, 24 h
MDA-MB-231 = test: cells; conditions: Homo sapiens, MDA-MB-231, 24 h

SMILES | IC50 (MDA-MB-468) | IC50 (MDA-MB-231)
CC(=O)Nc1ccc(-c2nc3ccccc3c(=O)[nH]2)cc1 | > 50 µM | > 50 µM
COc1cc(OC)c2c(=O)[nH]c(-c3cc(Br)c(OCC(=O)Nc4ccc(N5CCCCC5)cc4)c(Br)c3)nc2c1 | 15.6 µM | 16.4 µM
COc1cc(OC)c2c(=O)[nH]c(-c3ccc(OCC(=O)Nc4ccc(N5CCN(C)CC5)cc4)cc3)nc2c1 | 8.8 µM | 6.46 µM
COc1cc(OC)c2c(=O)[nH]c(-c3cc(Br)c(OCC(=O)Nc4ccc(N5CCN(C)CC5)cc4)c(Br)c3)nc2c1 | 15.8 µM | 13.6 µM
COc1cc(OC)c2c(=O)[nH]c(-c3ccc(NC(C)=O)cc3)nc2c1 | 24.7 µM | 27.3 µM
COc1cc(OC)c2c(=O)[nH]c(-c3ccc(C)cc3)nc2c1 | 38.4 µM | 45.6 µM
COc1ccc2nc(-c3ccc(NC(C)=O)cc3)[nH]c(=O)c2c1 | 41.2 µM | > 50 µM
COc1cc(OC)c2c(=O)[nH]c(-c3cc(C)c(OCC(=O)Nc4cccc(N5CCN(C)CC5)c4)c(C)c3)nc2c1 | 15.7 µM | 14.6 µM
COc1cc(OC)c2c(=O)[nH]c(-c3cc(C)c(OCC(=O)Nc4cc(OC)c(OC)c(OC)c4)c(C)c3)nc2c1 | 16.6 µM | 24.4 µM
COc1cc(OC)c2c(=O)[nH]c(-c3cc(C)c(OCC(=O)Nc4ccc(N5CCN(C)CC5)c(F)c4)c(C)c3)nc2c1 | 8.33 µM | 5.72 µM
COc1cc(OC)c2c(=O)[nH]c(-c3ccc(OCC(=O)NC4CCN(C(=O)OC(C)(C)C)CC4)cc3)nc2c1 | 16.6 µM | 13.1 µM
COc1cccc(-c2nc3cc(OC)cc(OC)c3c(=O)[nH]2)c1 | 29.3 µM | 38.3 µM
Cc1ccc(-c2nc3ccccc3c(=O)[nH]2)cc1 | > 50 µM | > 50 µM
COc1cc(OC)c2c(=O)[nH]c(-c3cc(C)c(OCC(=O)NC4CCN(C(=O)OC(C)(C)C)CC4)c(C)c3)nc2c1 | 17.2 µM | 22.4 µM
COc1cc(OC)c2c(=O)[nH]c(-c3ccc(OCC(=O)Nc4cc(OC)c(OC)c(OC)c4)cc3)nc2c1 | 15 µM | 23.4 µM
CN1CCN(c2ccc(NC(=O)COc3ccc(-c4nc5cc(Cl)ccc5c(=O)[nH]4)cc3)cc2Cl)CC1 | 15.3 µM | 14.4 µM
COc1cc(OC)c2c(=O)[nH]c(-c3ccc(OCC(=O)NCC4CCOCC4)cc3)nc2c1 | 26.6 µM | 21.2 µM
COc1cc(OC)c2c(=O)[nH]c(-c3cccc(C)c3)nc2c1 | 39.4 µM | 43.9 µM
Cc1ccc2nc(-c3ccc(OCC(=O)Nc4ccc(N5CCN(C)CC5)c(Cl)c4)cc3)[nH]c(=O)c2c1 | 16.2 µM | 17.4 µM
COc1ccc2oc(-c3ccccc3)cc(=S)c2c1 | > 50 µM | > 50 µM
CN1CCN(c2ccc(NC(=O)COc3ccc(-c4nc5cc(F)ccc5c(=O)[nH]4)cc3)cc2Cl)CC1 | 7.51 µM | 6.94 µM

SMILES | IC50 (MDA-MB-468) | IC50 (MDA-MB-231)
COc1cc(OC)c2c(=O)[nH]c(-c3ccc(OCC(=O)Nc4ccc(N5CCOCC5)cc4)cc3)nc2c1 | 9.54 µM | 7.67 µM
COc1cc(OC)c2c(=O)[nH]c(-c3cc(C)c(OCC(=O)NCC4CCOCC4)c(C)c3)nc2c1 | 25.6 µM | 23.6 µM
COc1ccc2oc(-c3cc(C)cc(C)c3)cc(=O)c2c1 | > 50 µM | 45.7 µM
COc1cc(OC)c2c(=O)[nH]c(-c3ccc(O)c(Br)c3)nc2c1 | 22.3 µM | 23.2 µM
COc1cc(OC)c2c(=O)[nH]c(-c3ccc(OCC(=O)Nc4cccc(N5CCOCC5)c4)cc3)nc2c1 | 17.8 µM | 15.3 µM
COc1cc(OC)c2c(=O)[nH]c(-c3ccc(OCC(=O)Nc4cccc(N5CCN(C)CC5)c4)cc3)nc2c1 | 8.07 µM | 13.2 µM
COc1cc(OC)c2c(=O)[nH]c(-c3cc(C)c(OCC(=O)Nc4ccc(N5CCCCC5)cc4)c(C)c3)nc2c1 | 9.43 µM | 13.4 µM
COc1ccc2nc(-c3ccc(C)cc3)[nH]c(=O)c2c1 | 30.4 µM | > 50 µM
COc1cc(OC)c2c(=O)[nH]c(-c3ccc(C(=O)O)cc3)nc2c1 | 8.33 µM | 21.1 µM
COc1cc(OC)c2c(=S)cc(-c3cc(C)cc(C)c3)oc2c1 | > 50 µM | > 50 µM
COc1cc(OC)c2c(=O)[nH]c(-c3ccc(OCC(=O)Nc4ccc(N5CCN(C)CC5)c(F)c4)cc3)nc2c1 | 7.55 µM | 6.3 µM
COc1ccc2nc(-c3cc(OC)c(O)c(OC)c3)[nH]c(=O)c2c1 | 43.3 µM | > 50 µM
COc1cc(OC)c2c(=O)[nH]c(-c3ccc(OCC(=O)Nc4ccc(N5CCOCC5)c(F)c4)cc3)nc2c1 | 8.58 µM | 7.09 µM
COc1cc(-c2nc3ccccc3c(=O)[nH]2)cc(OC)c1O | > 50 µM | > 50 µM
COc1cc(OC)c2c(=O)[nH]c(-c3cc(Br)c(OCC(=O)NC4CCN(C)CC4)c(Br)c3)nc2c1 | 14.8 µM | 16.9 µM
COc1cccc(-c2cc(=S)c3cc(OC)ccc3o2)c1 | > 50 µM | > 50 µM
COc1cc(OC)c2c(=O)[nH]c(-c3cc(Br)c(OCC(=O)Nc4ccc(N5CCOCC5)c(Cl)c4)c(Br)c3)nc2c1 | 5.53 µM | 4.02 µM
COc1cc(OC)c2c(=O)[nH]c(-c3ccc(OCC(=O)O)cc3)nc2c1 | 18.6 µM | 19.7 µM
COc1cc(OC)c2c(=O)[nH]c(-c3cccc(OCC(=O)O)c3)nc2c1 | 22.7 µM | 25.6 µM
COc1cccc(-c2cc(=O)c3cc(OC)ccc3o2)c1 [6,3'-DIMETHOXYFLAVONE] | > 50 µM | > 50 µM
COc1cc(OC)c2c(=O)[nH]c(-c3ccc(OCC(=O)Nc4ccc(N5CCOCC5)c(Cl)c4)cc3)nc2c1 | 8.29 µM | 4.52 µM

SMILES | IC50 (MDA-MB-468) | IC50 (MDA-MB-231)
COc1cc(OC)c2c(=O)[nH]c(-c3cc(C)c(OCC(=O)Nc4ccc(N5CCOCC5)cc4)c(C)c3)nc2c1 | 9.49 µM | 8.23 µM
COc1cc(OC)c2c(=O)[nH]c(-c3cc(C)c(OCC(=O)Nc4ccc(N5CCN(C)CC5)cc4)c(C)c3)nc2c1 | 12.6 µM | 10.8 µM
COc1cc(OC)c2c(=O)[nH]c(-c3ccccc3OC)nc2c1 | 44.6 µM | > 50 µM
COc1cc(OC)c2c(=O)cc(-c3cc(C)cc(C)c3)oc2c1 | 39.6 µM | 47.8 µM
COc1cc(OC)c2c(=O)[nH]c(-c3ccc(OCC(=O)Nc4ccc(N5CCCCC5)cc4)cc3)nc2c1 | 11.6 µM | 10.3 µM
COc1cc(OC)c2c(=O)[nH]c(-c3cc(C)c(OCC(=O)Nc4ccc(N5CCOCC5)c(F)c4)c(C)c3)nc2c1 | 9.16 µM | 10.3 µM
COc1cc(OC)c2c(=O)[nH]c(-c3cc(C)c(Br)c(C)c3)nc2c1 | 29.6 µM | 25.2 µM
COc1cc(OC)c2c(=O)[nH]c(-c3cc(C)c(OCC(=O)NC4CCN(C)CC4)c(C)c3)nc2c1 | 15.6 µM | 17.2 µM
COc1cc(OC)c2c(=O)[nH]c(-c3ccccc3OCC(=O)O)nc2c1 | 18.6 µM | 36.7 µM
COc1cc(OC)c2c(=O)[nH]c(-c3cc(C)c(OCC(=O)Nc4cccc(N5CCOCC5)c4)c(C)c3)nc2c1 | 13.4 µM | 11.3 µM
COc1cc(OC)c2c(=O)[nH]c(-c3cc(C)c(OCC(=O)Nc4nc5ccccc5[nH]4)c(C)c3)nc2c1 | 30.3 µM | > 50 µM
CN1CCN(c2ccc(NC(=O)COc3ccc(-c4nc5ccc(Cl)cc5c(=O)[nH]4)cc3)cc2Cl)CC1 | 6.23 µM | 5.21 µM
COc1cc(OC)c2c(=O)[nH]c(-c3ccc(OCC(=O)Nc4ccc(N5CCCC5)cc4)cc3)nc2c1 | 7.82 µM | 19.6 µM
COC(=O)COc1ccc(-c2nc3cc(OC)cc(OC)c3c(=O)[nH]2)cc1 | 13.8 µM | 22 µM
COc1cc(OC)c2c(=O)[nH]c(-c3ccc(N)cc3)nc2c1 | > 50 µM | 36.5 µM
COc1cc(OC)c2c(=O)[nH]c(-c3cc(C)c(OCC(=O)Nc4ccc(N5CCOCC5)c(Cl)c4)c(C)c3)nc2c1 | 6.31 µM | 10.2 µM
O=c1cc(-c2ccccc2)oc2ccc(Br)cc12 [6-BROMOFLAVONE] | 48.2 µM | 33.5 µM
COc1cc(OC)c2c(=O)[nH]c(-c3cc(C)c(O)c(C)c3)nc2c1 | 19.3 µM | 17.5 µM
COc1cc(OC)c2c(=O)[nH]c(-c3cc(C)c(OCC(=O)Nc4ccc(N5CCN(C)CC5)c(Cl)c4)c(C)c3)nc2c1 | 4.58 µM | 3.49 µM
COc1cc(OC)c2c(=O)[nH]c(-c3cc(Br)c(OCC(=O)Nc4ccc(N5CCOCC5)cc4)c(Br)c3)nc2c1 | 15.1 µM | 13.2 µM
